According to patent publication US20060057669A1, “Inactive transcription factor tif-ia and uses thereof” (priority 2002, published 2006):

Legend:
TIF-IA = assay: In vitro transcription assay of TIF-IA purified from treated cells, in nuclear extract from density-arrested FM3A cells; type: biochemical
Protocol: (A) TIF-IA activity in starved and serum-stimulated cells. The indicated amounts of TIF-IA purified from starved NIH3T3 cells (lanes 2-4) or cells that were stimulated by serum in the absence (lanes 5-7) or presence of PD98059 (lanes 8-10) were assayed for their capability to restore transcription of a nuclear extract from density-arrested FM3A cells (lane 1). The amount and purity of TIF-IA were estimated on silver-stained SDS-polyacrylamide gels (data not shown).
FLAG-tagged TIF-IA was purified from untreated (lanes 2-3) or PD98059-treated HEK293T cells (lanes 4-5). The indicated amounts of TIF-IA were assayed for their capability to restore transcription of a nuclear extract from density-arrested FM3A cells (lane 1). The amount of TIF-IA was estimated on silver-stained SDS-polyacrylamide gels (data not shown).
20 and 40 ng of TIF-IA that was immunopurified from untreated (lanes 2, 3) and rapamycin-treated cells (lanes 4, 5) were added to transcription reactions containing nuclear extracts (30 μg) from density-arrested cells.
Nuclear extracts were prepared from exponentially growing (8×10^5 cells/ml), density-arrested or PD98059-treated (CN Bioscience, Bad Soden, Germany) 40 μM, 0.5 hr) or rapamycin-treated FM3A cells (ATCC, Manassas, USA). […] After incubation for 60 min at 30° C., RNA was extracted and analyzed on non-denaturing 5% polyacrylamide gels […]

Pol I transcription = assay: Complementation of Pol I transcription in nuclear extracts from PD98059-treated FM3A cells; type: biochemical
Protocol: (C) TIF-IA, but not UBF, rescues Pol I transcription in extracts from PD98059-treated cells. Nuclear extracts from untreated or PD98059-treated FM3A cells were supplemented with 20 and 40 ng of purified TIF-IA and/or UBF (10 ng in lanes 7 and 9, 50 ng in lanes 3, 8 and 10).
(D) TIF-IA activates transcription in extracts from PD98059-treated cells in the presence of AMP-PNP and GMP-PNP. Nuclear extracts from PD98059-treated FM3A cells were supplemented with 40 ng of purified TIF-IA and assayed in the standard transcription system containing ATP and GTP (ATP, lanes 1, 2) or AMP-PNP and GMP-PNP (AMP-PNP, lanes 3, 4)
(D) ERK/RSK-dependent phosphorylation activates Pol I transcription in vitro. Nuclear extracts from PD98059-treated FM3A cells were supplemented with 40 ng of TIF-IA, 10 ng of HA-RSK, or 10 ng of HA-ERK as indicated, and transcriptional activity was assayed in the standard transcription system containing ATP and GTP (lanes 4-8) or AMP-PNP and GMP-PNP (lanes 9-13).
Nuclear extracts were prepared from exponentially growing (8×10^5 cells/ml), density-arrested or PD98059-treated (CN Bioscience, Bad Soden, Germany) 40 μM, 0.5 hr) or rapamycin-treated FM3A cells (ATCC, Manassas, USA). 25 μl assays contained 50 ng of template DNA (pMr600/EcoRI), 30 μg nuclear extract proteins and 12 mM Hepes-KOH, [pH8.0], 0.1 mM EDTA, 5 mM MgCl2, 80 mM KCl, 10 mM creatine phosphate, 12% (v/v) glycerol, 0.66 mM each of ATP, GTP and CTP, 0.01 mM UTP and 0.5 μCi [α-^32P]UTP (5000 Ci/mmol). After incubation for 60 min at 30° C., RNA was extracted and analyzed on non-denaturing 5% polyacrylamide gels
To test whether both TIF-IA and UBF, or TIF-IA alone, were targeted by ERK-mediated phosphorylation, nuclear extracts from untreated and PD98059-treated cells were assayed for rDNA transcription in the absence and presence of exogenous TIF-IA or UBF (FIG. 2C). If both UBF and TIF-IA were inactivated by PD98059, rescue of Pol I transcriptional activity would require both factors, whereas TIF-IA alone would be sufficient if it was the only factor that is inactivated by inhibition of the ERK pathway. […]

Molecule	transcriptional activity of TIF-IA from treated cells (TIF-IA; NIH3T3 cells stimulated with serum in the presence of PD98059)	transcriptional activity of TIF-IA from treated cells (TIF-IA; unsynchronized cells treated for 30 min with PD98059)	rescue of Pol I transcription in extracts from PD98059-treated cells (Pol I transcription; in the presence of AMP-PNP and GMP-PNP)	rescue of Pol I transcription in extracts from PD98059-treated cells (Pol I transcription; standard transcription system containing ATP and GTP)
COc1cccc(-c2cc(=O)c3ccccc3o2)c1N [PD98059]	TIF-IA remained inactive	transcriptionally inactive		
TIF-IA: wild-type human transcription initiation factor TIF-IA, accession No. AJ272050			activation of Pol I transcription by TIF-IA was also observed	rescued
